The target in the test is PARP-1 (poly[ADP-ribose] polymerase 1) enzyme (Homo sapiens (Human), UniProt P09874). Description: PARP-1 (poly[ADP-ribose] polymerase 1) enzyme inhibitory ability, Trevigen assay kit. Particulars: for inhibition at 0.001 µM: 1 nM compound, read-out: PAR P-1 Inhibitory ability at 1 nM. Type of test: biochemical. A digest of the protocol: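 Human PARP-1 activity was measured with a Trevigen assay kit in histone-coated 96-well plates rehydrated with 50 μL of 1×PARP buffer for 30 minutes. Enzyme (0.5 unit/well) and compound were preincubated 10 minutes at room temperature, then 25 μL of 1×PARP cocktail with biotinylated NAD and activated DNA was added for 1 hour.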

Counter-ions that a name gives are not always drawn.

Consider 33 compounds from patent US12459899B2, “Isoquinolinone derivatives, method for preparing the same, and pharmaceutical composition for preventing or treating poly(ADP-ribose) polymerase-1-related diseases, comprising the same as active ingredient” (DIGMBIO. INC., priority 2019, dated 2025).

Sequence of PARP-1 (poly[ADP-ribose] polymerase 1) enzyme (P09874 whole entry): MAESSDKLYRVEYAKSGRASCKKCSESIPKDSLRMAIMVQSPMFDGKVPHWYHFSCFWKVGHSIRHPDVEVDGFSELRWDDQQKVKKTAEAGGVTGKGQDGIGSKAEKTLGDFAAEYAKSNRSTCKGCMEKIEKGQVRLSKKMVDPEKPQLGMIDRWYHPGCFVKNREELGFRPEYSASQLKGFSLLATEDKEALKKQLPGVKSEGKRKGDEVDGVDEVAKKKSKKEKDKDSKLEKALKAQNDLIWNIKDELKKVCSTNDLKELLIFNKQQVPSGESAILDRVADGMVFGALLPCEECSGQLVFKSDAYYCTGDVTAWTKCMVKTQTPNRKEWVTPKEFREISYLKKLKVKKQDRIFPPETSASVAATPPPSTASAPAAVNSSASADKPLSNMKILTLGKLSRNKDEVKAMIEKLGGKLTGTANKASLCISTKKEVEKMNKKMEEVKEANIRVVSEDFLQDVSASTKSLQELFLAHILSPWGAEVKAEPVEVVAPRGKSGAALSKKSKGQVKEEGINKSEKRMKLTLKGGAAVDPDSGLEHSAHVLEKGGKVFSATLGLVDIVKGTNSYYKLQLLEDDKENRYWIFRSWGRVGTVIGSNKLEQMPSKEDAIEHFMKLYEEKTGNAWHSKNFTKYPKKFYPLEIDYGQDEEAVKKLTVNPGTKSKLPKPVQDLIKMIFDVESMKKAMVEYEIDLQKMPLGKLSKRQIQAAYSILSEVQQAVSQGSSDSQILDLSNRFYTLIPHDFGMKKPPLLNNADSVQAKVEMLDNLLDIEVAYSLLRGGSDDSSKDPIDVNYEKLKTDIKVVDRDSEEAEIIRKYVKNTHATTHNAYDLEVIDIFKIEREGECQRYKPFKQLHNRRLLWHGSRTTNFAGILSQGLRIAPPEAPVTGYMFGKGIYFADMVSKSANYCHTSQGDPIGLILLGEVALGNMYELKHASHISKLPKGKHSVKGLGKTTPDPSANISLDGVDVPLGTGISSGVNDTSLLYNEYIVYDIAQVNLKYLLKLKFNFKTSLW

On to `CC(C)C(=O)N1CCN(C(=O)CCc2cc3cccc(F)c3c(=O)[nH]2)CC1` [Example 186, 8-fluoro-3-(3-(4-isobutyrylpiperazin-1-yl)-3-oxopropyl)isoquinolin-1(2H)-one], for which the inhibition at 0.001 µM is less than 50%.

Consider `Cc1ccc(F)c2c(=O)[nH]c(CCC(=O)N3CCN(C(=O)C(C)C)CC3)cc12` [Example 187, 8-fluoro-3-(3-(4-isobutyrylpiperazin-1-yl)-3-oxopropyl)-5-methylisoquinolin-1(2H)-one], for which the inhibition at 0.001 µM was less than 50%.

For the compound `CC(C)C(=O)N1CCN(C(=O)CCc2cc3ccc(F)cc3c(=O)[nH]2)CC1` [Example 188, 7-fluoro-3-(3-(4-isobutyrylpiperazin-1-yl)-3-oxopropyl)isoquinolin-1(2H)-one], the inhibition at 0.001 µM is less than 50%.

Regarding `Cc1cc(F)cc2c(=O)[nH]c(CCC(=O)N3CCN(C(=O)C(C)C)CC3)cc12` [Example 189, 7-fluoro-3-(3-(4-isobutyrylpiperazin-1-yl)-3-oxopropyl)-5-methylisoquinolin-1(2H)-one], the inhibition at 0.001 µM was less than 50%.

In the case of `O=C(CCc1cc2cccc(F)c2c(=O)[nH]1)N1CCN(C(=O)C2CCCO2)CC1` (stereo not shown) [Example 190, 8-fluoro-3-(3-oxo-3-(4-(tetrahydrofuran-2-carbonyl)piperazin-1-yl)propyl)isoquinolin-1(2H)-one], the inhibition at 0.001 µM is less than 50%.

Turning to `Cc1ccc(F)c2c(=O)[nH]c(CCC(=O)N3CCN(C(=O)C4CCCO4)CC3)cc12` (stereo not shown) [Example 191, 8-fluoro-5-methyl-3-(3-oxo-3-(4-(tetrahydrofuran-2-carbonyl)piperazin-1-yl)propyl)isoquinolin-1(2H)-one], the inhibition at 0.001 µM is less than 50%.

On to `O=C(CCc1cc2ccc(F)cc2c(=O)[nH]1)N1CCN(C(=O)C2CCCO2)CC1` (stereo not shown) [Example 192, 7-fluoro-3-(3-oxo-3-(4-(tetrahydrofuran-2-carbonyl)piperazin-1-yl)propyl)isoquinolin-1(2H)-one], for which the inhibition at 0.001 µM was less than 50%.

On to `Cc1cc(F)cc2c(=O)[nH]c(CCC(=O)N3CCN(C(=O)C4CCCO4)CC3)cc12` (stereo not shown) [Example 193, 7-fluoro-5-methyl-3-(3-oxo-3-(4-(tetrahydrofuran-2-carbonyl)piperazin-1-yl)propyl)isoquinolin-1(2H)-one], for which the inhibition at 0.001 µM is less than 50%.

Take `Cc1ccc(F)c2c(=O)[nH]c(CCC(=O)N3CCN(C(=O)[C@H](C)N)CC3)cc12` [Example 194, 3-(3-(4-(L-alanyl)piperazin-1-yl)-3-oxopropyl)-8-fluoro-5-methylisoquinolin-1(2H)-one hydrochloride]: the inhibition at 0.001 µM is less than 50%.

In the case of `Cc1ccc(F)c2c(=O)[nH]c(CCC(=O)N3CCN(C(=O)[C@@H](N)Cc4ccccc4)CC3)cc12` [Example 195, 3-(3-(4-(L-phenylalanyl)piperazin-1-yl)-3-oxopropyl)-8-fluoro-5-methylisoquinolin-1(2H)-one hydrochloride], the inhibition at 0.001 µM was less than 50%.

In the case of `Cc1ccc(F)c2c(=O)[nH]c(CCC(=O)N3CCN(C(=O)C4CCCN4)CC3)cc12` (stereo not shown) [Example 196, hydrochloride], the inhibition at 0.001 µM was less than 50%.

`Cc1ccc(F)c2c(=O)[nH]c(CCCN3C4CCC3CN(c3ccc(C#N)cc3)C4)cc12` [Example 197]: the inhibition at 0.001 µM is less than 50%.

`Cc1ccc(F)c2c(=O)[nH]c(CCCN3C4CCC3CN(c3ccc(F)cc3)C4)cc12` [Example 198, 8-fluoro-3-(3-(3-(4-fluorophenyl)-3,8-diazabicyclo[3.2.1]octan-8-yl)propyl)-5-methylisoquinolin-1(2H)-one]: the inhibition at 0.001 µM is less than 50%.

As to `Cc1ccc(F)c2c(=O)[nH]c(CCCN3C4CCC3CN(c3ccc(C#N)cn3)C4)cc12` [Example 199], the inhibition at 0.001 µM is less than 50%.

With `Cc1ccc(F)c2c(=O)[nH]c(CCCN3C4CCC3CN(c3ccc(C#N)nc3)C4)cc12` [Example 200, 5-(8-(3-(8-fluoro-5-methyl-1-oxo-1,2-dihydroisoquinolin-3-yl)propyl)-3,8-diazabicyclo[3.2.1]octan-3-yl)picolinonitrile], the inhibition at 0.001 µM was 50 to 80%. Also, the IC50 (PARP-1 enzyme activity) was found to be 1.24 nM.

`Cc1ccc(F)c2c(=O)[nH]c(CCCN3C4CCC3CN(c3ccc(Cl)cc3)C4)cc12` [Example 201, 3-(3-(3-(4-chlorophenyl)-3,8-diazabicyclo[3.2.1]octan-8-yl)propyl)-8-fluoro-5-methylisoquinolin-1(2H)-one]: the inhibition at 0.001 µM is less than 50%.

Consider `Cc1ccc(F)c2c(=O)[nH]c(CCCN3C4CCC3CN(c3ccc(F)nc3)C4)cc12` [Example 202, 8-fluoro-3-(3-(3-(6-fluoropyridin-3-yl)-3,8-diazabicyclo[3.2.1]octan-8-yl)propyl)-5-methylisoquinolin-1(2H)-one], for which the inhibition at 0.001 µM was less than 50%.

Regarding `N#Cc1ccc(N2CC3CCC(C2)N3CCCc2cc3cccc(F)c3c(=O)[nH]2)nc1` [Example 203, 6-(8-(3-(8-fluoro-1-oxo-1,2-dihydroisoquinolin-3-yl)propyl)3,8-diazabicyclo[3.2.1]octan-3-yl)nicotinonitrile], the inhibition at 0.001 µM is less than 50%.

Turning to `N#Cc1ccc(N2CC3CCC(C2)N3CCCc2cc3ccc(F)cc3c(=O)[nH]2)nc1` [Example 204, 6-(8-(3-(7-fluoro-1-oxo-1,2-dihydroisoquinolin-3-yl)propyl)-3,8-diazabicyclo[3.2.1]octan-3-yl)nicotinonitrile], the inhibition at 0.001 µM is 50 to 80%.

As to `Cc1cc(F)cc2c(=O)[nH]c(CCCN3C4CCC3CN(c3ccc(C#N)cn3)C4)cc12` [Example 205, 6-(8-(3-(7-fluoro-5-methyl-1-oxo-1,2-dihydroisoquinolin-3-yl)propyl)-3,8-diazabicyclo[3.2.1]octan-3-yl)nicotinonitrile], the inhibition at 0.001 µM lay within 50 to 80%.

For `N#Cc1ccc(N2CC3CCC(C2)N3C(=O)CCc2cc3cccc(F)c3c(=O)[nH]2)nc1` [Example 206, 6-(8-(3-(8-fluoro-1-oxo-1,2-dihydroisoquinolin-3-yl)propanoyl)-3,8-diazabicyclo[3.2.1]octan-3-yl)nicotinonitrile], the inhibition at 0.001 µM is less than 50%.

In the case of `Cc1ccc(F)c2c(=O)[nH]c(CCC(=O)N3C4CCC3CN(c3ccc(C#N)cn3)C4)cc12` [Example 207, 6-(8-(3-(8-fluoro-5-methyl-1-oxo-1,2-dihydroisoquinolin-3-yl)propanoyl)-3,8-diazabicyclo[3.2.1]octan-3-yl)nicotinonitrile], the inhibition at 0.001 µM was less than 50%.

Regarding `Cc1ccc(F)c2c(=O)[nH]c(CCC(=O)N3C4CCC3CN(c3ccc(F)cc3)C4)cc12` [Example 208, 8-fluoro-3-(3-(3-(4-fluorophenyl)-3,8-diazabicyclo[3.2.1]octan-8-yl)-3-oxopropyl)-5-methylisoquinolin-1(2H)-one], the inhibition at 0.001 µM is less than 50%.

For the compound `Cc1ccc(F)c2c(=O)[nH]c(CCC(=O)N3C4CCC3CN(c3ccc(Cl)cc3)C4)cc12` [Example 210, 3-(3-(3-(4-chlorophenyl)-3,8-diazabicyclo[3.2.1]octan-8-yl)-3-oxopropyl)-8-fluoro-5-methylisoquinolin-1(2H)-one], the inhibition at 0.001 µM was less than 50%.

On to `Cc1ccc(F)c2c(=O)[nH]c(CCC(=O)N3C4CCC3CN(c3ccc(F)nc3)C4)cc12` [Example 211, 8-fluoro-3-(3-(3-(6-fluoropyridin-3-yl)-3,8-diazabicyclo[3.2.1]octan-8-yl)-3-oxopropyl)-5-methylisoquinolin-1(2H)-one], for which the inhibition at 0.001 µM is less than 50%.

As to `Cc1ccc(F)c2c(=O)[nH]c(CCC(=O)N3C4CCC3CN(c3ccc(F)cn3)C4)cc12` [Example 212, 8-fluoro-3-(3-(3-(5-fluoropyridin-2-yl)-3,8-diazabicyclo[3.2.1]octan-8-yl)-3-oxopropyl)-5-methylisoquinolin-1(2H)-one], the inhibition at 0.001 µM is less than 50%.

`Cc1cc(F)cc2c(=O)[nH]c(CCC(=O)N3C4CCC3CN(c3ccc(C#N)cc3)C4)cc12` [Example 213, 4-(8-(3-(7-fluoro-5-methyl-1-oxo-1,2-dihydroisoquinolin-3-yl)propanoyl)-3,8-diazabicyclo[3.2.1]octan-3-yl)benzonitrile]: the inhibition at 0.001 µM was less than 50%.

Take `Cc1cc(F)cc2c(=O)[nH]c(CCC(=O)N3C4CCC3CN(c3ccc(C#N)cn3)C4)cc12` [Example 214]: the inhibition at 0.001 µM is less than 50%.

Turning to `Cc1cc(F)cc2c(=O)[nH]c(CCC(=O)N3C4CCC3CN(c3ccc(F)cc3)C4)cc12` [Example 215, 7-fluoro-3-(3-(3-(4-fluorophenyl)-3,8-diazabicyclo[3.2.1]octan-8-yl)-3-oxopropyl)-5-methylisoquinolin-1(2H)-one], the inhibition at 0.001 µM was less than 50%.

Take `Cc1cc(F)cc2c(=O)[nH]c(CCC(=O)N3C4CCC3CN(c3ccc(Cl)cc3)C4)cc12` [Example 216, 3-(3-(3-(4-chlorophenyl)-3,8-diazabicyclo[3.2.1]octan-8-yl)-3-oxopropyl)-7-fluoro-5-methylisoquinolin-1(2H)-one]: the inhibition at 0.001 µM was less than 50%.

Regarding `Cc1cc(F)cc2c(=O)[nH]c(CCC(=O)N3C4CCC3CN(c3ccc(F)nc3)C4)cc12` [Example 217, 7-fluoro-3-(3-(3-(6-fluoropyridin-3-yl)-3,8-diazabicyclo[3.2.1]octan-8-yl)-3-oxopropyl)-5-methylisoquinolin-1(2H)-one], the inhibition at 0.001 µM is less than 50%.

Take `Cc1cc(F)cc2c(=O)[nH]c(CCC(=O)N3C4CCC3CN(c3ccc(F)cn3)C4)cc12` [Example 219, 7-fluoro-3-(3-(3-(5-fluoropyridin-2-yl)-3,8-diazabicyclo[3.2.1]octan-8-yl)-3-oxopropyl)-5-methylisoquinolin-1(2H)-one]: the inhibition at 0.001 µM is less than 50%.

In the case of `N#Cc1ccc(N2CC3CCC(C2)N3C(=O)CCc2cc3ccc(F)cc3c(=O)[nH]2)nc1` [Example 220, 6-(8-(3-(7-fluoro-1-oxo-1,2-dihydroisoquinolin-3-yl)propanoyl)3,8-diazabicyclo[3.2.1]octan-3-yl)nicotinonitrile], the inhibition at 0.001 µM is less than 50%.

A word on the IC50: it is the concentration that gives 50% inhibition.
